Test results as given in patent US7919673B2, “Transgenic pig with altered incretin function” (Ludwig-Maximilians-Universitat, priority 2008, dated 2011).
Entries after “also recorded” stand apart in the source; their conditions may differ.

What was measured:
[1] = system: GIPR^dn transgenic (tg) and control (wt) pigs; test: GIP/Exendin-4 stimulation test in 7-months-old (28-36 weeks) pigs; assay type: in vivo, pig; details: 28- to 36-week-old; for insulin secretion compared to glucose administration alone: 10 pmol/kg BW Exendin-4 i.v. 3 min after i.v. glucose, p<0.05
Source text: (§1) For the oral glucose tolerance test (OGTT), one central venous catheter (Cavafix® Certo®, B. Braun, Melsungen, Germany) was inserted non-surgically into the external jugular vein under general anesthesia according to the manufacturer's instructions. For accomplishment of the GIP/Exendin-4 stimulation test as well as the intravenous glucose tolerance test, two central venous catheters (Cavafix® Certo®, B. Braun) were surgically inserted into the external jugular vein under general anesthesia using a modified method of Moritz et al. (24). At the start of the study period, all animals had fully recovered from the surgical procedure as evaluated by normal behavior and food intake.
(§2) The OGTT was performed in 11-week old and 5-month-old non-restrained, freely moving animals. After an 18-h overnight fast, animals were fed 2 g/kg BW glucose (25) mixed with 100 g of commercial pig fodder (Deuka primo care in 11-week-old pigs; Deuka porfina U in 5-month-old pigs; Deuka, Düsseldorf, Germany). The meal was eaten from a bowl under supervision. Blood samples were obtained from the jugular vein catheter at −10, 0, 15, 30, 45, 60, 90 and 120 minutes relative to the glucose load in 11-week-old pigs and at −15, −5, 0, 15, 30, 45, 60, 90, 120, 150 and 180 minutes relative to the glucose load in 5-month-old pigs. Serum glucose levels were determined using an AU 400 autoanalyzer (Olympus, Hamburg, Germany) while serum insulin levels were measured in duplicate using a porcine insulin radioimmunoassay (RIA) kit (Millipore, Billerica, USA) according to the manufacturer's instructions.
(§3) The GIP/Exendin-4 stimulation test was performed in 10- to 13-week old and 7-months-old (28-36 weeks) non-restrained freely moving animals. In 7-months-old animals, 0.5 g glucose/kg BW were administered intravenously as a bolus of concentrated 50% glucose solution following an 18-hour fasting period (26). After three minutes 20 pmol/kg BW of synthetic porcine GIP (Bachem, Weil am Rhein, Germany) or 10 pmol/kg BW of synthetic Exendin-4 (Bachem) were administered intravenously. Blood samples were collected −15, 0, 1, 3, 6, 9, 11, 13, 18, 23, 28, 33, 48 and 60 minutes relative to the glucose load. In 10- to 13-week-old animals, 0.5 g glucose/kg BW were administered intravenously as a bolus of concentrated 50% glucose solution following an 18-hour fasting period (26). Right after glucose administration 80 pmol/kg BW of synthetic porcine GIP (Bachem, Weil am Rhein, Germany) or 40 pmol/kg BW of synthetic Exendin-4 (Bachem) were administered intravenously. […]
(§4) All data are presented as means±SEM. […] Data from the GIP/Exendin-4 stimulation tests in 10- to 13-week-old animals as well as from proliferation index (Ki67 immunohistochemistry) were analyzed using ANOVA (analysis of variance) (SAS). […]

[2] = system: GIPR^dn transgenic (tg) and control (wt) pigs; test: GIP/Exendin-4 stimulation test in 10- to 13-week-old pigs; assay type: in vivo, pig; details: for insulinotropic effect in GIPR^dn transgenic pigs compared to controls: 10- to 13-week-old (eleven-week-old) pigs, intravenously administrated with glucose
Source text: as §1, §2, §3, §4

Substance | insulin secretion compared to glucose administration alone ([1]; GIPR^dn transgenic pigs) | insulin secretion compared to glucose administration alone ([1]; control pigs) | insulinotropic effect in GIPR^dn transgenic pigs compared to controls [2] | insulin secretion in GIPR^dn transgenic pigs compared to controls ([2]; 10- to 13-week-old pigs, 40 pmol/kg BW Exendin-4 i.v. together with 0.5 g/kg i.v. glucose, p<0.01) | increase in glucose-induced insulin concentration (Δ insulin) ([1]; GIPR^dn transgenic pigs, 20 pmol/kg BW GIP i.v. 3 min after 0.5 g/kg i.v. glucose, glucose alone 7 μU/ml) [μU/ml] | increase in i.v. glucose-induced serum insulin concentration (Δ insulin) ([1]; control (wt) pigs, 20 pmol/kg BW GIP i.v. 3 min after 0.5 g/kg i.v. glucose, glucose alone 27 μU/ml) [μU/ml] | serum insulin levels in control pigs compared to GIPR^dn transgenic pigs ([2]; 10- to 13-week-old pigs, 80 pmol/kg BW GIP i.v. together with 0.5 g/kg i.v. glucose)
Exendin-4 | significant stimulation; also recorded: significant increase | significant increase | enhanced | increased insulin secretion; also recorded: significantly higher increase | – | – | –
glucose-dependent insulinotropic polypeptide [GIP] | – | – | blunted; also recorded: impaired | – | 11 | 58 | significantly (p<0.01) higher insulin levels
